Results as given in publication PMC12040169 (PLOS Biology, 2025).

Assay: in vitro
Details: human, hela cells, % viability

Compound | viability at 28.5 h, 10 µM [%]
CC(C)(C)c1ccc(-c2nc3ncccc3cc2O)cc1 [CBK073703] | 74.5
Cc1cnc2[nH]c(C(F)(F)F)c(CN3CCN(C)CC3)c2c1 [CBK284765] | 92.3
COCCCNC(=O)Cn1ccc2ccnc(-c3cccs3)c21 [CBK282303] | 109
CCOC(=O)c1cnn(-c2cc(Oc3ccccc3)ncn2)c1N [CBK098284] | 105
CN1C[C@@H](NC(=O)NCc2ccccc2)C[C@H]1c1nc(-c2cncnc2)no1 [CBK288878] | 108
Cc1noc(C)c1NC(=O)c1cncn1C [CBK200396] | 115
CCc1nn(CC(=O)N(CC)CC)c(=O)c2cc3sccc3n12 [CBK284054] | 77.8
COc1ccccc1CCCN1CCC2(C1)NCCc1c2[nH]c2ccccc12 (stereo not drawn) [CBK040257] | 91
CCc1ccc(S(=O)(=O)Nc2ccc(O)c(C(=O)O)c2)cc1 [CBK299827] | 90.7
CC(C)C(=O)N1CCC(n2nc(-c3ccco3)ccc2=O)CC1 [CBK284244] | 83.8
CCCCN(C=O)c1c(CC)nc2ccc(C(=O)NCC3CCCCC3)cn12 [CBK145708] | 85.3
Cc1ccc(-c2csc(NC(=O)CN3C(=O)CCC3=O)n2)cc1 [CBK287346] | 98.3
Cc1cc(C)n2nc(C(=O)N/N=C/c3ccc(O)cc3)nc2n1 [CBK261765] | 85.4
O=C(O)c1cc(NC(=O)C2CCCO2)ccc1O (stereo not drawn) [CBK269815] | 99
Cc1noc(NS(=O)(=O)c2ccc(NC(=O)COc3ccc(Cl)cc3Cl)cc2)c1C [CBK262142] | 89.3
COC(=O)[C@@H]1Cc2ncn(C(C)C)c2CN1C(=O)c1ccccc1 [CBK288987] | 82.2
N#CCCN1CCC2(CC1)NCCc1c2[nH]c2ccccc12 [CBK039788] | 89
COc1ccc(CCNC(=O)N2CCN(CCc3ccccc3)CC2)cc1OC [CBK158915] | 102
NC(=O)CCCCn1c2c(c3cccc(C(=O)O)c31)CCCCC2 [CBK034088] | 104
O=c1cc(N2CCN(CC3CCOC3)CC2)c(-c2ccccc2)n[nH]1 (stereo not drawn) [CBK306957] | 91.5
CCc1cc(NC[C@@H](O)CO)nc(-c2ccc(F)c(Cl)c2)n1 [CBK132880] | 74.4
CC(=O)Nc1cc(C(=O)Nc2ccc(Br)cc2)ccc1C [CBK267788] | 84.1
c1cnn(CC2CCCCN2c2ncnc3ccsc23)c1 (stereo not drawn) [CBK304843] | 88.3

Compound | viability at 28.5 h, 10 µM [%]
Cc1nc(S(=O)(=O)CCn2cccn2)n(C2CCCC2)c1C [CBK305138] | 89
COc1ccc([C@H]2C3CCCCC3[C@@H]2NC(=O)C2CCCO2)cc1 (stereo partly drawn) [CBK282990] | 108
N#Cc1ccc(C(=O)NCC2(N3CCOCC3)CCSC2)cc1 (stereo not drawn) [CBK305602] | 95.3
COc1ccc(C(=O)/C=C/Nc2ccc(S(=O)(=O)NC(=N)N)cc2)cc1 [CBK262277] | 84.1
CCc1nc2ccccc2n1CC(=O)N(C)C(C)c1cccnc1 (stereo not drawn) [CBK304017] | 110
Clc1cc(Nc2cccc(OCc3ccccc3)c2)n2nccc2n1 [CBK037109] | 92.2
CCOCC(=O)N(C)C(CO)c1cc(OC)ccc1Br (stereo not drawn) [CBK304722] | 90
CC(=O)N1CCc2sccc2C1c1ccc(NCc2ccc(F)cc2F)cc1 (stereo not drawn) [CBK286455] | 93.8
COc1ccc(CCCC(=O)Nc2ccccc2N2CCNCC2)cc1OC [CBK028283T] | 107
CN(CC(=O)NCc1ccccc1OC1CCNC1)C(=O)c1ccccc1 (stereo not drawn) [CBK028298T] | 96.9
Nc1ncc(-c2cccc([N+](=O)[O-])c2)nc1-c1ccc(O)cc1 [CBK122507] | 101
CC(C)CC(=O)N1C[C@H]2CCCN(Cc3ccsc3)[C@H]2C1 [CBK285290] | 102
Clc1ccc(CN2CCCN(c3cc(OC4CCCCC4)ncn3)CC2)cc1Cl [CBK083338T] | 79.5
O=C(c1cnc2cc(C(F)(F)F)ccc2c1O)N1CCN(c2ccccn2)CC1 [CBK107431] | 94.8
Nc1nc(Cl)c2ncn([C@H]3C[C@@H](O)[C@@H](CO)O3)c2n1 [CBK201193] | 100
COCCN(Cc1cnn(C)c1)C(=O)Cc1coc2cc(C)c(Cl)cc12 [CBK307435] | 108
Cc1ccc(C(=O)N2CCC(c3nc4ccccc4s3)CC2)cc1NS(C)(=O)=O [CBK254629] | 89.2
Cc1nn(C)c(C)c1CNC(=O)N1CCN(CC(F)F)CC1 [CBK304249] | 102
CN(C)c1ccc(NC(=O)C(Cc2ccccc2)N2C(=O)c3ccccc3C2=O)cc1 (stereo not drawn) [CBK262413] | 99.6
Cc1nnc(SCC(=O)n2c3c(c4ccccc42)CCCC3)n1C [CBK268351] | 111
COc1ccccc1Cc1cccc(C2CCN(C(=O)Cc3c[nH]c4ccccc34)CC2)n1 [CBK286226] | 92.8
c1csc(-c2cn3ccnc3c(NCC3CC3)n2)c1 [CBK066754] | 93.7
CCOC(=O)N1CCCN(C(=O)OCC)CC1 [CBK034324] | 101

Compound | viability at 28.5 h, 10 µM [%]
C=CCc1cccc(Cl)c1OCCN1CCNCC1 [CBK266071G] | 105
COc1ccc(NC(=O)Cc2csc(NC(=O)c3ccco3)n2)c(OC)c1 [CBK287649] | 91.7
COCCn1c(=O)n(Cc2ccccc2)c2cccnc21 [CBK283964] | 91
Cc1ccc(C(=O)CC(C(=O)O)c2c(C)[nH]c3ccccc23)cc1 (stereo not drawn) [CBK269337] | 96.1
CC1(C)CC(=O)C2=C(C1)OC(=O)CC2c1ccc(Cl)cc1Cl (stereo not drawn) [CBK007777] | 93.8
Cc1noc(C)c1C(=O)N(C)Cc1cc(-c2ccncc2)no1 [CBK306677] | 102
COc1ccc(C(=O)C(C)OC(=O)c2ccc3ccccc3n2)cc1 (stereo not drawn) [CBK111937] | 99
CC(=O)Nc1ccccc1NC(=O)CCCN1C(=O)CCC1=O [CBK267681] | 92.8
O=C(Oc1cccc2cccnc12)c1ccc(Br)o1 [CBK019461] | 89.4
CS(=O)(=O)Nc1ccc(CC#N)cc1 [CBK038145] | 114
Cc1ccc(CN(CCCN(C)C)Cc2cnc(C)n2C)o1 [CBK283188] | 95.4
CC(C)(C)C1CCc2c(sc(NC(=O)c3cccs3)c2C(N)=O)C1 (stereo not drawn) [CBK307114] | 85.4
Cn1cncc1CN1C2CCC1CC(O)(c1ccccc1F)C2 (stereo not drawn) [CBK282649] | 107
COc1cc([C@@H]2c3cc4c(cc3[C@H](O)[C@H]2C(=O)Nc2ccccc2)OCO4)cc(OC)c1OC [CBK200106] | 101
CC(=O)NC(CCC(N)=O)C(=O)N1CC2(CCCC2)c2c(F)cccc21 (stereo not drawn) [CBK306412] | 82.9
CCN(CC)C(=O)Cn1nc(C)n2c(cc3sccc32)c1=O [CBK284044] | 88.7
COc1ccc(CCN2CCC(Oc3nccnc3OCCN3C(=O)CCC3=O)CC2)cc1OC [CBK084359] | 109
CCc1nnc(NS(=O)(=O)c2ccc(NC(=O)c3ccccc3[N+](=O)[O-])cc2)s1 [CBK045494] | 94.2
COc1cc(CC(=O)Nc2cccc(-c3ccc(OC4CCNCC4)cc3)n2)cc(OC)c1OC [CBK138351] | 83.4
O=C(O)CCN1CCn2c3c(c4cc(C5CCCCC5)ccc42)CCCC31 (stereo not drawn) [CBK263236] | 91.4
COc1ccc(-c2cccc(CC3(C(=O)NCc4cccs4)CCOCC3)c2)cc1 [CBK286514] | 88.5
COc1ccc2c(c1)C1(CC(=O)N(C)C1=O)C(=O)N2CC(=O)O (stereo not drawn) [CBK076118] | 100
O=C(NCC(c1ccco1)N1CCCC1)C1CCCCC1 (stereo not drawn) [CBK304560] | 88.7

Compound | viability at 28.5 h, 10 µM [%]
CC(C)[C@@H](CO)Nc1cncc(-c2ccc(O)cc2)n1 [CBK066038] | 97.8
CC(=O)NCCc1nc2ccccc2n1CCOc1ccc(Cl)cc1 [CBK269610] | 107
CCOC(=O)c1[nH]c2ccccc2c1NS(=O)(=O)c1ccc(OC)c(OC)c1 [CBK047421] | 86
CCc1ccc(OCC(=O)Nc2ccc3oc(-c4ccc(F)cc4Cl)nc3c2)cc1 [CBK265010] | 100
O=C(O)c1cccc(Nc2nc(Nc3ccccc3)nc(N3CCCC3)n2)c1 [CBK286863] | 89.8
CN(CCc1ccncc1)C(=O)c1cc2ccc(F)cc2[nH]1 [CBK283215] | 81.3
O=C(c1cccc(NS(=O)(=O)Cc2ccccc2)c1)N1CCOCC1 [CBK038991] | 91
CC(C)c1ccc(SCCc2ccccn2)cc1 [CBK026575C] | 88.8
CSCC1CCCN(C(=O)c2cc3ncc(CCO)cn3n2)C1 (stereo not drawn) [CBK307256] | 79.6
Cc1ccc(NC(=O)CSc2nnc(C(O)c3ccccc3)n2-c2ccccc2)c(C)c1 (stereo not drawn) [CBK266072] | 106
CC(=O)Nc1cc(C(=O)CSc2nnnn2-c2ccc(C)c(C)c2)ccc1O [CBK295143] | 90.9
Cc1cc(C)c(S(=O)(=O)Nc2nnc(C(F)(F)F)s2)c(C)c1 [CBK045507] | 99.7
CN(C)c1ncc(-c2ccc(F)cc2)c(C2CCCN2C(=O)c2nccc3ccccc23)n1 (stereo not drawn) [CBK286086] | 84.3
Cc1ccc(NC(=O)Cn2cnc3c(=O)n(C)c(=O)n(C)c32)c(O)c1 [CBK267002] | 102
Clc1nccnc1NCCOc1ccccc1 [CBK113564] | 93.8
CC1CCCCN1C(=O)CCn1c(-c2ccncc2)cc2cccnc21 (stereo not drawn) [CBK282689] | 105
NCCNC(=O)c1cc2cc(F)ccc2[nH]1 [CBK107345] | 95.8
CCc1ccc(CNC(=O)Cn2cc(-c3ccc(CN4CCC(CO)CC4)cc3)nn2)cc1 [CBK167551] | 105
O=C(NC[C@H]1O[C@@H](CC(=O)N2CCc3ccccc32)[C@H](O)[C@@H]1O)C1CC1 [CBK288915] | 105
Cc1cc2c(s1)c1cnn(Cc3cccnc3)c(=O)c1n2C [CBK284154] | 79.1
CC(=O)Oc1ccccc1C(=O)Oc1ccc2c(c1)c(C(C)=O)c(C)n2-c1ccccc1 [CBK263175] | 89.2
